Common to all, as to assay type: cell-based
Test [1] has as its system Staphylococcus aureus ATCC 29213. Nature of the test: Broth microdilution MIC/MBC. The note with it: for MBC / MIC: ATCC29213. The gist of the method:
(§1)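 Compounds were dissolved in DMSO and tested against reference strains, including Gram-positive bacteria and Candida spp., following EUCAST and CLSI broth microdilution procedures. Two-fold serial dilutions covered final concentrations from 1000 to 0.488 µg/ml, in RPMI 1640/MOPS for fungi and Mueller-Hinton broth for bacteria. Each strain was added as a 0.5 McFarland suspension.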
On the technique in general: Dilution methods test growth across graded concentrations, often in twofold steps.

Test [2] deals with Staphylococcus epidermidis ATCC 12228. Nature of the test: Broth microdilution MIC/MBC. The note with it: for MBC: ATCC12228. The essentials:
as §1

The subject of another test is Gram-negative bacteria. Nature of the test: Broth microdilution, summary over the Gram-negative panel. The essentials: as §1

In article PMC10743905, “Design, Synthesis, and In Vitro and In Vivo Bioactivity Studies of Hydrazide–Hydrazones of 2,4-Dihydroxybenzoic Acid” (International Journal of Molecular Sciences, 2023) one finds MBC/MIC, MBC and MIC data, which are given here for eight compounds.

A word on the MBC: it is the lowest tested concentration that kills the bacteria rather than only halting them. A low value points to greater bactericidal potency. The MIC is the lowest concentration found to suppress growth.

In brackets after ≈: the same amount, converted by molar mass. Where two headings read alike, the source gives them in different places.

Consider `CCCc1ccc(/C=N/NC(=O)c2ccc(O)cc2O)cc1` [Compound 13, 2,4-dihydroxy-N-[(4-propylphenyl)methylidene]benzohydrazide], for which the MBC/MIC in test [1] and in test [2] was over 1 in each case. The minimal bactericidal concentration (MBC) (in test [1]; in test [2]; against Gram-negative bacteria) was over 1000 µg/mL throughout. In addition, the minimal inhibitory concentration (MIC) in test [1] is 1000 µg/mL (≈ 3350 µM); in test [2] (ATCC12228, read-out: MIC) it was 1000 µg/mL (≈ 3350 µM); against Gram-negative bacteria, 500 to 1000 µg/mL (≈ 1680 to 3350 µM).
Turning to `O=C(N/N=C/c1cc(I)cc(I)c1O)c1ccc(O)cc1O` [Compound 18, 2,4-dihydroxy-N-[(2-hydroxy-3,5-diiodophenyl)methylidene]benzohydrazide], the figures for the MBC/MIC in test [1] and in test [2] were 2 and 8, respectively. Also, the figures for the MBC (in test [1]; in test [2]; with Gram-negative bacteria) were 15.6 µg/mL (≈ 29.8 µM), 7.81 µg/mL (≈ 14.9 µM) and over 1000 µg/mL, respectively. Further, the minimal inhibitory concentration (MIC) in test [1] is 7.81 µg/mL (≈ 14.9 µM); in test [2], 0.98 µg/mL (≈ 1.87 µM); in test [2] (ATCC12228, read-out: MIC) it was 0.98 µg/mL (≈ 1.87 µM); with Gram-negative bacteria it was 500 to 1000 µg/mL (≈ 954 to 1910 µM).
With `O=C(N/N=C/c1ccccc1[N+](=O)[O-])c1ccc(O)cc1O` [Compound 19, 2,4-dihydroxy-N-[(2-nitrophenyl)methylidene]benzohydrazide], the MBC/MIC was over 1 in test [1] and over 2 in test [2]. The MBC in test [1] and in test [2] was over 1000 µg/mL throughout. The MIC in test [1] was 1000 µg/mL (≈ 3320 µM); in test [2] (ATCC12228, read-out: MIC) it was 500 µg/mL (≈ 1660 µM); in the test on Gram-negative bacteria, 500 to 1000 µg/mL (≈ 1660 to 3320 µM).
Turning to `O=C(N/N=C/c1cccc([N+](=O)[O-])c1)c1ccc(O)cc1O` [Compound 20, 2,4-dihydroxy-N-[(3-nitrophenyl)methylidene]benzohydrazide], the minimal inhibitory concentration (MIC) in test [1] is over 1000 µg/mL; in test [2] (ATCC12228, read-out: MIC), over 1000 µg/mL.
With `O=C(N/N=C/c1ccc([N+](=O)[O-])cc1)c1ccc(O)cc1O` [Compound 21, 2,4-dihydroxy-N-[(4-nitrophenyl)methylidene]benzohydrazide], the MBC/MIC in test [1] and in test [2] was over 2 each time. Besides, the MBC in test [1] and in test [2] was over 1000 µg/mL throughout. Also, the minimal inhibitory concentration (MIC) in test [1] was found to be 500 µg/mL (≈ 1660 µM); in test [2] (ATCC12228, read-out: MIC), 500 µg/mL (≈ 1660 µM).
For `O=C(N/N=C/c1ccccc1Cl)c1ccc(O)cc1O` [Compound 22, N-[(2-chlorophenyl)methylidene]-2,4-dihydroxybenzohydrazide], in test [1], the MIC was over 1000 µg/mL. In test [2], this compound came in with an MBC/MIC of over 1 and an MBC of over 1000 µg/mL. The MIC in test [2] (ATCC12228, read-out: MIC) stood at 1000 µg/mL (≈ 3440 µM).
In test [1], `O=C(N/N=C/c1ccccc1Br)c1ccc(O)cc1O` [Compound 23, N-[(2-bromophenyl)methylidene]-2,4-dihydroxybenzohydrazide] yielded a minimal inhibitory concentration (MIC) of over 1000 µg/mL. Also, in test [2], the MBC/MIC is recorded as over 2 and the minimal bactericidal concentration (MBC) was over 1000 µg/mL. For the same compound, in test [2] (ATCC12228, read-out: MIC), the minimal inhibitory concentration (MIC) stood at 500 µg/mL (≈ 1490 µM).
Regarding `O=C(N/N=C/c1ccccc1F)c1ccc(O)cc1O` [Compound 24, N-[(2-fluorophenyl)methylidene]-2,4-dihydroxybenzohydrazide], the MIC is over 1000 µg/mL in test [1] and over 1000 µg/mL in test [2] (ATCC12228, read-out: MIC).
